# Experiments:
# [1] = test system: human primary melanocytes; test: NaOH lysis method for measuring melanin content of human primary melanocytes; type: cell-based
# [2] = test system: normal human melanocytes (NHMCs); test: Morphology of normal human melanocytes (NHMCs), phase-contrast microscopy; type: cell-based; conditions: 0.1-10 μM, 5 days, with increases in dosage
# B16F10 cells [3] = test: Western blotting of melanin synthesis proteins (MITF, TYR, TRP-1, TRP-2) in B16F10 cells; type: cell-based, mouse; conditions: 72 h, vs blank control
# C57BL/6 mice [4] = test: Skin color on the back of hair-removed synchronized C57BL/6 mice after gavage; type: in vivo, mouse; conditions: 20 mg/kg gavage once a day, 12th day, vs solvent control group
# [5] = test system: normal human primary melanocytes; test: MTT assay for measuring cell proliferation rate of human primary melanocytes; type: cell-based; conditions: 72 hours
# [6] = test system: TYR activity in zebrafish; test: TYR activity in PTU(35) group zebrafish; type: in vivo
# Description: The zebrafish depigmentation model were obtained by treating zebrafish embryos with 1-phenyl 2-thiourea (PTU). […] All data were expression for at least three experiments. ***P<0.001 vs control; ^#P<0.05, ^##P<0.01, ^###P<0.001 vs PTU (35 h) group. Data expressed as mean±SD (n=40).
# C57BL/6 mice [7] = test: Immunohistochemistry of melanin synthesis proteins in hair follicle melanocytes of C57BL/6 mice; type: in vivo, mouse; conditions: 20 mg/kg gavage, 12th day, immunohistochemical staining
# [8] = test system: in vitro cultured normal human skin tissue; test: Melanin content of in vitro cultured normal human skin tissue (NaOH cracking process); type: cell-based; conditions: 1 μM, 48 hours
# [9] = test system: tyrosinase activity of human primary melanocytes; test: L-DOPA oxidation assay for tyrosinase activity of human primary melanocytes; type: cell-based
# B16F10 cells [10] = test: NaOH lysis method for determination of melanin content of B16F10 cells; type: cell-based, mouse
# [11] = test system: human primary melanocytes; test: Western blotting of melanin synthesis proteins (MITF, TYR, TRP-1, TRP-2) in human primary melanocytes; type: cell-based; conditions: 72 h, vs blank control
# [12] = test system: tyrosinase activity in normal human skin tissue; test: Tyrosinase activity of in vitro cultured normal human skin tissue (L-DOPA); type: cell-based; conditions: 1-100 μM, 48 hours
# C57BL/6 mice [13] = test: Western blotting of melanin synthesis proteins in skin hair follicles of C57BL/6 mice; type: in vivo, mouse; conditions: 20 mg/kg gavage, 12th day
# A375 cells = test: Cell migration (wound healing test) and morphology, A375 cells; conditions: 48 hours, 0.1-10 μM
# B16F10 cells [14] = test: Cell migration (wound healing test) and morphology, B16F10 cells; conditions: 48 hours, 0.1-10 μM
# zebrafish embryos = test: Melanogenesis in PTU-induced zebrafish depigmentation model; type: in vivo; conditions: even at 1.0 μM, hour 12 to hour 60 after fertilization; especially in skin and eyes
# Description: The zebrafish depigmentation model were obtained by treating zebrafish embryos with 1-phenyl 2-thiourea (PTU). […] Both embryos were treated in 0.2 mM (“M” stands for “mole/liter” throughout this disclosure) PTU to inhibit melanogenesis from after fertilization until the time their pictures were taken, i.e., at hour 35 and hour 60, respectively, i.e., the PTU(35) group and the PTU(60) group. […] Data expressed as mean±SD (n=40).
# [15] = test system: tyrosinase activity of B16F10 cells; test: L-DOPA oxidation assay for measuring tyrosinase activity of B16F10 cells; type: cell-based, mouse
# B16F10 cells [16] = test: MTT assay for measuring cell proliferation rate of B16F10 cells; type: cell-based, mouse; conditions: 0.1 to 10 μM
# [17] = in vivo; cited from earlier work
compound,measurement,setting,value
"CNCCC(Oc1ccc(C(F)(F)F)cc1)c1ccccc1 (centres unmarked) [fluoxetine, N-methyl-γ-[4-(trifluoromethyl)phenoxy] phenylpropylamine]",melanin content of human primary melanocytes,"[1]; 72 hours, vs control group, P<0.01",significantly increased
same,melanin content increase rate compared with positive drug psoralen,[1]; human primary melanocytes,close to or exceeded that of the positive drug psoralen
same,dendritic morphology of NHMCs (number and length of dendrites),[2],the number as well as the length of the primary dendritic melanocytes increase significantly
same,expression of protein MITF,B16F10 cells [3],significantly improve
same,expression of protein tyrosinase (TYR),B16F10 cells [3],significantly improve
same,expression of tyrosinase-related protein 1 (TRP-1),B16F10 cells [3],significantly improve
same,protein level of tyrosinase-related protein 2 (TRP-2),B16F10 cells [3],not significantly affected
same,skin color in the hair-removed area of the skin,C57BL/6 mice [4],significantly darkened
same,toxicity on human primary melanocytes,[5],relatively low toxicity
same,effect on the growth of normal human primary melanocytes,"[5]; vs blank control, P>0.05",no significant effect
same,"TYR activity, dosage dependence","[6]; PTU(35) group zebrafish, 10.0 μM compared with 1.0 μM",higher TRY activity than Flx(1.0 μM)
same,TYR activity in the PTU(35) group zebrafish,[6]; exposure for 48 hours (hour 12 to hour 60 after fertilization),enhanced the TYR activity
same,expression of tyrosinase (TYR) in hair follicle melanocytes,C57BL/6 mice [7],significantly improve
same,expression of tyrosinase-related protein 1 (TRP-1) in hair follicle melanocytes,C57BL/6 mice [7],significantly improve
same,expression of tyrosinase-related protein 2 (TRP-2) in hair follicle melanocytes,C57BL/6 mice [7],significantly improve
same,melanogenesis (melanin content) in skin tissue,[8],stimulates melanogenesis
same,tyrosinase activity of human primary melanocytes,"[9]; 72 hours, vs blank control, P<0.01",significantly promoted
same,enzyme activity increase rate compared with positive drug psoralen,"[9]; human primary melanocytes, fluoxetine at 5 μM and 10 μM",exceeded that of the positive drug psoralen
same,melanin content of B16F10 cells,"B16F10 cells [10]; 1 to 10 μM, 72 hours, vs blank control, P<0.05 at 1 μM, P<0.01 at 5 μM and 10 μM",significantly increased
same,melanin content increase rate compared with positive drug psoralen,B16F10 cells [10]; B16F10 cells,exceeded that of the positive drug psoralen
same,expression of protein MITF,[11],significantly improve
same,expression of protein tyrosinase (TYR),[11],significantly improve
same,expression of tyrosinase-related protein 1 (TRP-1),[11],significantly improve
same,protein level of tyrosinase-related protein 2 (TRP-2),[11],not significantly affected
same,activity of tyrosinase in skin tissue,[12],did not exhibit any change
same,expression of protein MITF in skin hair follicles,C57BL/6 mice [13],significantly improve
same,expression of tyrosinase (TYR) in skin hair follicles,C57BL/6 mice [13],significantly improve
same,expression of tyrosinase-related protein 1 (TRP-1) in skin hair follicles,C57BL/6 mice [13],significantly improve
same,expression of tyrosinase-related protein 2 (TRP-2) in skin hair follicles,C57BL/6 mice [13],significantly improve
same,cell mobility,A375 cells,may increase the mobility
same,cell mobility,B16F10 cells [14],may increase the mobility
same,melanogenesis in the PTU model zebrafish,zebrafish embryos,increased melanogenesis
same,tyrosinase activity of B16F10 cells,"[15]; 72 hours, vs blank control, P<0.05 at 1 μM and 5 μM, P<0.01 at 10 μM",significantly promoted
same,enzyme activity increase rate compared with positive drug psoralen,"[15]; B16F10 cells, fluoxetine in the highest concentration",close to that of the positive drug psoralen
same,toxicity and carcinogenesis on B16F10 melanoma cells,B16F10 cells [16],low toxicity and low carcinogenesis
same,effect on the growth of B16F10 cells (cell proliferation rate),"B16F10 cells [16]; 72 hours, vs blank control, P>0.05",no significant effect
same,drug excreted in the stool,[17],15%
same,drug excreted in the urine,[17],about 80%
